Test results taken from the NIST ThermoML archive (doi:10.1016/j.jct.2010.02.001).

Experiments:
[1] = Liquid, Ebulliometric method (Recirculating still)
[2] = refractive index (Na D-line) (dimensionless); xn = mol fraction of the nth substance listed; settings: 293.15 K, 101 kPa, Liquid, Standard Abbe refractometry

CCCCO [butan-1-ol]
[1]
Settings | vapor or sublimation pressure [kPa]
356.35 K | 25.3
359.45 K | 29.3
362.95 K | 33.5
368.6 K | 42.8
373.45 K | 52.5
377.3 K | 61.2
381.9 K | 72.8
386.05 K | 84.9
391.95 K | 105.3
395.8 K | 120.1

CCCCO [butan-1-ol] + CCCO
[2]
Settings | refractive index
x2 = 0 | 1.3992
x2 = 0.0852 | 1.3979
x2 = 0.1369 | 1.3971
x2 = 0.1987 | 1.3962
x2 = 0.2741 | 1.395
x2 = 0.3521 | 1.3939
x2 = 0.4218 | 1.3928
x2 = 0.5 | 1.3916
x2 = 0.5742 | 1.3905
x2 = 0.6588 | 1.3892
x2 = 0.7123 | 1.3884
x2 = 0.7986 | 1.3871
x2 = 0.862 | 1.3862
x2 = 0.936 | 1.385

CCCO [propan-1-ol]
[1]
Settings | vapor or sublimation pressure [kPa]
337.95 K | 25.6
341.35 K | 30.1
346.15 K | 37.4
350.8 K | 46
353.25 K | 51.1
357.35 K | 60.7
362.45 K | 74.7
366.25 K | 86.8
370.4 K | 101.8
373.65 K | 114.9

CCCO [propan-1-ol] + CCCCO
Settings | refractive index
[2], x1 = 1 | 1.3841
